Laboratory results published in patent US20130203706A1, “COMPOUNDS AND METHODS FOR THE TREATMENT OR PREVENTION OF FLAVIVIRUS INFECTIONS” (Vertex Pharmaceuticals Incorporated, priority 2011, published 2013).

Assay: PK parameters of prodrugs after oral gavage to rats (plasma levels of prodrug and active metabolite by LC/MS/MS)
Format: in vivo
Conditions: orally by gavage, 3 mg/kg, 0.5% MC/0.5% Tween 80/99% water, plasma up to 24 hrs post dose, FIGS. 3-5
Experimental: The prodrug whose PK parameters are to be determined can be formulated as a solution in 0.5% MC/0.5% Tween 80/99% water and administered orally by gavage to rats at a dose of 3 mg/kg. Rats are weighed the day before the study. Rat plasma is sampled predose and at 15, 30 min, 1, 2, 3, 4, 6, 8, 12 and 24 hrs post dose using Instech automatic blood sampling equipment. Blood is collected in tubes containing K2-EDTA and 110 uL plasma are extracted for analysis. Rats are fed ad lib and standard IACUC and SOP protocols are followed. Plasma samples and dose samples are analyzed using LC/MS/MS for both the prodrug compound and the active metabolite. PK parameters for both analytes for each subject are calculated using the measured dose of prodrug. The PK parameters of a prodrug of the invention (compound 10) was measured as described in the preceding paragraph, and are depicted in FIG. 3.

Row | SMILES | in vivo conversion of prodrug into active metabolite
1 | CC(C)[C@H](N)C(=O)O[C@H]1CC[C@H](N(c2cc(C#CC(C)(C)C)sc2C(=O)O)C(=O)[C@H]2CC[C@H](C)CC2)CC1 [Compound 1] | in vivo converted into their active metabolites
2 | C[C@@H](N)C(=O)O[C@H]1CC[C@H](N(c2cc(C#CC(C)(C)C)sc2C(=O)O)C(=O)[C@H]2CC[C@H](C)CC2)CC1 [Compound 10] | in vivo converted into the —OH active metabolite
3 | CC(C)C#Cc1cc(N(C(=O)[C@H]2CC[C@H](C)CC2)[C@H]2CC[C@H](OC(=O)[C@H](C)N)CC2)c(C(=O)O)s1 [Compound 11] | in vivo converted into their active metabolites
